Measured values published in patent publication US12144821B1, “Selective 3-prenyl 5-methyl ether, 7-o-rhamnoside flavone for the treatment of hepatic cancer” (KING FAISAL UNIVERSITY, priority 2024, dated 2024).

Columns and labels:
Assay type in all cases: cell-based, human
HepG2 cells [1] = assay: Invasion assay; conditions: non-cytotoxic concentrations, FIGS. 3A-3B
Protocol: (§1) During the metastatic cascade of carcinomas, tumor migration and invasion is the first and most important steps. It involves profound changes in cell adhesion, allowing tumour cells to dissociate and migrate from the primary site. […] Several essential steps of metastasis, including migration (FIGS. 2A-2B) invasion (FIG. 3A-3B) of human liver cancer cells, are inhibited by the 3-prenyl 5-methyl ether, 7-O-rhamnoside.
(§2) The migration and invasion assays were conducted by photographing the cells that migrated the membrane (200× magnification). As illustrated in FIGS. 2A-2B HepG2 cells were treated with 3-prenyl 5-methyl ether, 7-O-rhamnoside at indicated doses for 24 hours. The percentage inhibition of migrating cells was quantified and expressed based on untreated cells (control) represented 100%. The migration was determined by the areas of the wound closure calculated from three microscopic fields per sample.
As illustrated in FIGS. 3A-3B, invasiveness was determined by counting cells in three microscopic fields per sample. The inhibitory percentage of invading cells was quantified and expressed with untreated cells (control) representing 100%. Values are mean±SD of three independent experiments. (p<0.01 compared untreated cells).

HepG2 cells [2] = assay: Migration assay (wound closure); conditions: non-cytotoxic concentrations, 24 hours, FIGS. 2A-2B
Protocol: as §1, §2

HepG2 cancer cell line = assay: Cell viability assay (MTT), antiproliferative screening; conditions: FIGS. 1A-1C
Protocol: Cells (HepG2) were provided from the American Type Culture Collection (ATCC) unless otherwise stated. Cells were grown in ATCC-formulated specific DMEM/F12 medium for each cell line with supplements of 5% fetal bovine serum, 10 U/ml penicillin, 10 μg/ml streptomycin, and 4% glutamine. All cell lines were placed in a humidified incubator a 37° C. in an atmosphere of 5% CO2 and 95% air. Cells were cultured into two groups. One as control cells and the other as cell lines treated for one day (3-prenyl 5-methyl ether, 7-O-rhamnoside-treated cells).
The cell viability will be tested using MTT. […] The culture supernatant was removed, the remaining MTT formazan crystals was dissolved in 400 μL of DMSO, and the absorbance was measured at 570 nm using an ELISA micro-plate reader (Bio-Tek Instruments, Winooski, VT, USA). The effect of 3-prenyl 5-methyl ether, 7-O-rhamnoside on cell viability was assessed as the percentage of viable cells compared with the vehicle-treated control cells, which were arbitrarily designated as 100%.
The cells were treated with increasing concentrations of 3-prenyl 5-methyl ether, 7-O-rhamnoside, (0-5, 10, 15, 20 and 25 μmol/mL for 24,48 and 72 h. The viability was assessed using the MTT assay. Values are mean±SD of three independent experiments. (p<0.01 compared untreated cells).

In the case of `COc1cc(OC2OC(C)C(O)C(O)C2O)cc2oc(-c3ccc(O)cc3)c(CC=C(C)C)c(=O)c12` (stereo not shown) [3-prenyl 5-methyl ether, 7-O-rhamnoside, apigenin 3-prenyl 5-methyl ether, 7-O-rhamnoside], the “invasion of human liver cancer cells” value (HepG2 cells [1]) is reported as “inhibited”, the “migration of human liver cancer cells” value (HepG2 cells [2]) is reported as “inhibited” and the “cytotoxicity for the HepG2 cancer cell line (cell viability, MTT)” value (HepG2 cancer cell line; 0, 5, 10, 15, 20 and 25 μmol, 24, 48 and 72 hrs) is reported as “potentially cytotoxic”. For the same compound, the “dose-dependent potentiation / enhancement of anti-proliferative effects” value (HepG2 cancer cell line; seen at both 15 and 20 μmol) was “Potentiation”.
